Where two headings read alike, the source gives them in different places. A value given as a limit tells only on which side of the number the result lay.

The subject of test [1] is malignant glioma U87-MG cells. Description: MTT cell growth inhibition, U87-MG glioma. Type of test: cell-based, human. As to the method:
(§1) 1. MTT Assays. For these assays either cancer cell lines were used. Alternatively, mononuclear cells from peripheral blood samples of CLL patients or normal donors were separated by Ficoll Hipaque fractionation and resuspended in DMEM complete medium. Malignant cells from various human cell lines (usually at 5×10^4 cells/ml) or mononuclear cells from peripheral blood of leukemia patients and healthy donors (1×10^6 cells/ml) were incubated in either αMEM or RPMI 1640 with or without various concentrations of OSW-1 in the range of 0-10 nM. Each experimental condition was done in triplicate. After the indicated number of days (usually 3 days or 72 hours) of exposure to OSW-1, cell survival was assessed by the addition of the MTT dye to the wells. The MTT dye changes its color depending on the presence of live cells in the well. Survival of cells under orsaponin treatment was evaluated as a percentage of control cell growth. Alternatively, one can also use the dye trypan-blue which penetrates dead cells thereby allowing one to count live cells under the microscope and estimating percentage survival.
To test the therapeutic selectivity of Orsaponin and 17-deoxyorsaponin, their effect on human brain tumor cells (U87 malignant glioma) and normal human astrocytes were compared. The normal human astrocytes were previously immortalized by transfection with hTER to allow a long-term culture in vitro. The antiproliferative effect of Orsaponin in human malignant glioma cells (U87-MG) and normal human astrocytes was examined. Cells were incubated with various concentrations of Orsaponin for 72 h. Cell growth inhibition was measured by MTT assay (FIG. 21).

Test [2] relates to primary normal lymphocytes. Description: MTT cell viability, normal lymphocytes from healthy donors. Type of test: cell-based. The note with it: Homo sapiens, Lymphocyte. As to the method:
FIG. 8. Effect of Orsaponin (OSW-1) on cell survival in primary normal lymphocytes isolated from healthy donors. Freshly isolated normal lymphocytes were incubated with the indicated concentrations of OSW-1 for 72 hours in vitro. Cell viability was measured by MTT assay. The IC50 value estimated to be 4 nM and 3 nM in case #1 and #2, respectively.
as §1
As controls the effect of OSW-1 on cell survival in primary normal lymphocytes isolated from healthy donors was also analyzed. Freshly isolated normal lymphocytes were incubated with the 01-0 nM OSW-1 for 72 hours in vitro and cell viability was measured by MTT assay. As depicted in FIG. 8, the IC50 value estimated to be 4 nM and 3 nM in case #1 and #2, respectively.

For a further test, the system named is Raji cells (lymphoma). Kind of test: MTT cell growth inhibition, Raji. Type of test: cell-based, human. The conditions noted are these: 72 h. On the procedure: FIG. 2. Effect of Orsaponin (OSW-1) on cell growth in two human cancer cell lines including a leukemia and a lymphoma cell line. HL-60 (leukemia) and Raji cells (lymphoma) in exponentially growing phase were treated with the indicated concentrations of OSW-1 for 72 hours. Cell growth inhibition was measured by MTT assay.
Cells and Cell Lines. Various cancer cell lines were used including the human leukemia cell lines HL-60 and ML-1 cells; human lymphoma cell line Raji; human pancreatic cancer cells AsPC-1; and human ovarian cancer cells SKOV3; human colon cancer cells HCT116; as well as isolated CLL cells from patients; and lymphocytes from normal donors. Cells were grown and maintained as per protocols known in the art using appropriate cell culture media and supplements.
1. MTT Assays. For these assays either cancer cell lines were used. […] After the indicated number of days (usually 3 days or 72 hours) of exposure to OSW-1, cell survival was assessed by the addition of the MTT dye to the wells. […] Survival of cells under orsaponin treatment was evaluated as a percentage of control cell growth. […]
Anticancer activities of Orsaponin and 17-deoxyorsaponin were examined in human leukemia cells (ML-1) and human lymphoma cells (Raji). Cells were incubated with various concentrations of Orsaponin and 17-deoxyorsaponin for 72 h, and cell growth inhibition was measured by MTT assay.

In another test the test system is AsPC-1/IκBα-ND cells. Kind of test: MTT cell growth inhibition, AsPC-1 with NFκB inactivated. Type of test: cell-based. The conditions noted are these: Homo sapiens, ASPC1, 72 h. On the procedure: FIG. 4. The anticancer activity of Orsaponin (OSW-1) is not affected by NFκB expression in pancreatic cancer cells. Human pancreatic cancer cells AsPC-1 with constitutive activation of NFκB or inactivation of NFκB by dominant negative IκBα (AsPC-1/IκBα-ND) were treated with the indicated concentrations of OSW-1 for 72 h. Cell growth inhibition was measured by MTT assay.
as §1, with “The MTT dye changes its color depending on the presence of live cells in the well.” left out, “Alternatively, one can also use the dye trypan-blue which penetrates dead cells thereby allowing one to count live cells under the microscope and estimating percentage survival.” left out
OSW-1 Inhibits Growth of Pancreatic Cancer Cells Irrespective of NFκB Expression. […] Cell growth inhibition was measured by MTT assay. […]

The test system of another test is ML-1 cells. Description: Mitochondrial transmembrane potential (rhodamine-123), ML-1. Type of test: cell-based, human. The note with it: ML-1, 1 nM, 16 and 24 h. As to the method: FIG. 11. Effect of orsaponin (OSW-1) on mitochondrial transmembrane potential ML-1 cells. The parental ML-1 line and its mutant with mitochondrial respiration defect, clone C19, were incubated with 1 nM OSW-1 for the indicated times. Change in mitochondrial transmembrane potential was measured by cytometry analysis, using rhodamine-123 as a potential-sensitive fluorescent probe.
3. Analysis of the Mitochondrial Transmembrane Potential. To evaluate the role of mitochondrial respiration in the cytotoxicity of OSW-1, changes in the potential of mitochondrial membrane were analyzed. Following the treatment of cells with OSW-1 for different time periods, cells were incubated with rhodamine-123 which is a potential-sensitive dye. Cytometric analysis was used to record changes in mitochondrial potential. […]
The effect of OSW-1 on mitochondrial transmembrane potential of ML-1 cells and the corresponding mitochondrial respiration defective mutant cell line C19 were analyzed by incubating with 1 nM OSW-1 for 4, 16 and 24 hours. Change in mitochondrial transmembrane potential was measured by cytometry analysis, using rhodamine-123 as a potential-sensitive fluorescent probe and are depicted in FIG. 11.

The test system of test [3] is C6F cells (HL-60 mutant with mitochondrial respiration defect). Kind of test: Apoptosis and cell cycle, respiration-deficient C6F. Type of test: cell-based, human. The note with it: 0.5 nM, 16 and 24 h. As to the method:
FIG. 9. Mitochondrial respiration plays an important role in the cytotoxic action of Orsaponin (OSW-1). The parental HL-60 line and its mutant with mitochondrial respiration defect, clone C6F, were incubated with 0.5 nM OSW-1 for the indicated times. Apoptosis and change in cell cycle distribution were assayed by flow cytometry analysis.
Two cancer cell lines and their mutant mitochondrial respiration deficient clones were analyzed for apoptosis and changes in cell-cycle following exposure to OSW-1. Thus, the parental HL-60 leukemia line and its mitochondrial respiration defective mutant C6F were incubated with 0.5 nM OSW-1 for 0, 8, 16 and 24 hours and apoptosis and change in cell cycle distribution were assayed by flow cytometry analysis. […] Thus, it is clear that the respiration defective cells are resistant to the effects of OSW-1. Consistent with these observations, apoptosis was also detected by DNA fragmentation assays performed at 24 and 32 hours after HL-60 cells are treated with OSW-1; DNA fragmentation was not observed in C6F cells even at 32 hours of drug incubation (data not shown).

The term IC50 denotes the midpoint of a concentration-inhibition curve. Take `COc1ccc(C(=O)OC2C(OC3C(O)COC(O[C@H]4C[C@H]5[C@@H]6CC=C7C[C@@H](O)CC[C@]7(C)[C@H]6CC[C@]5(C)[C@@]4(O)[C@H](C)C(=O)CCC(C)C)C3OC(C)=O)OCC(O)C2O)cc1` (stereo partly drawn) [OSW-1, 3β, 16β, 17 α-trihydroxycholost-5-en-22-one 16-O-(2-O-4-methoxybenzoyl-β-D-xylopyranosyl)-(1->3)-(2-O-acetyl-α-L-arabinopyranoside)]: the IC50 in test [1] (Homo sapiens, U-87 MG, U87-MG, 72 h, MTT) is less than 0.1 nM; in test [2] (72 h, normal lymphocytes, 72 hours, case #1, read-out: IC50, cell viability), approximately 4 nM; in test [2] (72 h, normal lymphocytes, 72 hours, case #2, read-out: IC50, cell viability) it was approximately 3 nM; in test [2] (Normal Lymphocytes, mean, read-out: IC50) it was 3.5 ± 0.7 nM; in the test with Raji cells (lymphoma), less than 0.5 nM; in the test with AsPC-1/IκBα-ND cells, approximately 0.3 nM. The “sensitivity of glioma cells compared with normal astrocytes” value in test [1] (U87-MG vs normal human astrocytes) was “much more sensitive”. Also, in the test on ML-1 cells, the “change in mitochondrial transmembrane potential” value is reported as “substantial loss of mitochondrial transmembrane potential”. The apoptosis entry in test [3] is on record as “does not result in significant apoptosis”.

The record behind these values is patent publication US20050004044A1, “Use of orsaponin [3beta, 16beta, 17 alpha-trihydroxycholost-5-en-22-one 16-0-(2-0-4-methoxybenzoyl-beta-D-xylopyranosyl)-(1->3)-(2-0-acetyl-alpha-L-arabinopyranoside)] or OSW-1 and its derivatives for cancer therapeutics” (priority 2003, published 2005).
